Results from patent US8071535B2, “Guanidinium derivatives for improved cellular transport” (The Regents of the University of California, priority 2003, dated 2011).
Marks after values point to notes of the source that are not given here.

How the values were obtained:
10T½ cells [1] = test: Cellular uptake by FACS, 10T½ cells; format: cell-based, mouse; settings: for Mean Fluorescence Intensities of Treated Cells According to FACS, 10T1/2: 0.5 μM of each compound for 1 hr, average intensity of 10,000 individual cells; for Cellular uptake (in words) / Cellular uptake / transport efficiency compared to poly-Arg peptide BODIPY-Cys(Arg)9 (5): FACS; for Cellular uptake (in words): slightly above the autofluorescence of the cell itself; for Enhancement of cellular uptake upon guanidinylation: relative to autofluorescence, guanidinoglycoside-BODIPY vs aminoglycoside-BODIPY; for Cellular uptake / transport efficiency compared to poly-Arg peptide BODIPY-Cys(Arg)9 (5): in words
Method: (§1) 10T½ cells, an adherent non-transformed mouse fibroblast cell line, were purchased from ATCC and used before their 20th passage. HeLa cells, a common human cancer cell line, were a gift from Dr. Susan S. Taylor. Both cell lines were cultured in Dulbecco's modified eagle medium containing 10% fetal bovine serum at 37° C. in an 8% CO2 environment. For each experiment, cells were seeded onto 4 cm tissue culture plates (Nunc) and allowed to grow overnight to […].
(§2) Compounds 1-5 identified in Table 1, below (0.5-1 μM), were added to each dish and incubated at 37° C./8% CO2 for 0.5-1 hr. Cells were then washed once in PBS, trypsinized with 500 μl ATV solution (Gibco) for 3 minutes, pelleted in a fixed angle centrifuge for 5 minutes at 5,000×G, then brought up in 1 mL PBS. Each sample was quickly (within 5 minutes) analyzed on a FACS VantageSE cell sorter (Becton-Dickinson) using the 488 nm argon/krypton laser line and a 530 nm band pass emission filter. 2,000-10,000 cells were counted per sample.
(§3) Examples of FACS histograms are presented in FIG. 3, which illustrates the fluorescence intensity versus cell count for 10,000 individual 10T½ cells following a 1 hour incubation with 0.5 μM of: (A) tobra-BODIPY (Red) and guanidine-tobra-BODIPY (White); (B) neo-BODIPY (Red) and guanidine-neo-BODIPY (White); (C) BODIPY-Cys(Arg)9 (Red), or guanidine-neo-BODIPY (White); and (D) uptake of BODIPY-Cys(Arg)9 inhibited by guanidine-neomycin B (6) at 0 μM (Red), 10 μM (Black), 200 μM (Green).
(§4) In a typical experiment, cell cultures were treated with 0.5-5 μM of each compound for 0.5-1 hr, washed twice with buffer, cleaved with trypsin, and quantified for fluorescence at 530 nm.

HeLa cells [2] = test: Cellular uptake by FACS, HeLa cells; format: cell-based, human; settings: 1 μM of each compound for 0.5 hr; average intensity of 2,000 individual cells; about 10-fold higher instrumental gain than 10T1/2
Method: as §1, §2, §4

10T½ cells [3] = test: Competition experiment: uptake of BODIPY-Cys(Arg)9 in presence of unlabeled guanidino-neomycin B (6), FACS; format: cell-based, mouse
Method: as §2, §3

[4] = system: Rev-Response-Element (RRE); settings: in words; cited from earlier work
HeLa cells [5] = test: Scanning confocal fluorescence microscopy, cellular localization; format: cell-based, human; settings: confocal cross sections of living cells; 5 μM, 30 minute treatment
Method: The uptake of BODIPY-containing glycosides by two different eukaryotic cell lines was also studied using fluorescence microscopy.
as §4
(A) and (B) show cross-sectional images of two individual HeLa cells in solution following a 30 minute treatment with 5 μM of guanidine-neo-BODIPY and cleavage with trypsin.
Microscopy experiments have been conducted using both fluorescein-labeled and BODIPY-labeled guanidinoglycosides. The relative intensities of individual cells, following treatment with either fluorescent aminoglycosides or guanidinoglycosides are consistent with the trends from FACS experiments.

tobra-BODIPY hydrochloride [Tobra-BODIPY (1)]
Mean Fluorescence Intensities of Treated Cells According to FACS, 10T1/2 (10T½ cells [1]): 60
Cellular uptake (in words) (10T½ cells [1]): poor cellular uptakes
Mean Fluorescence Intensities of Treated Cells According to FACS, HeLa (HeLa cells [2]): 1,000

NC[C@H]1O[C@H](O[C@H]2[C@H](O)[C@@H](O[C@H]3O[C@H](CO)[C@@H](O)[C@H](N)[C@H]3O)[C@H](N)C[C@@H]2N)[C@H](N)C[C@@H]1O [tobramycin, reference compound]
Enhancement of cellular uptake upon guanidinylation (10T½ cells [1]): approximately 10 fold

NC(N)=NC[C@@H]1O[C@H](O[C@H]2[C@@H](O)[C@H](O[C@@H]3[C@H](O)[C@@H](N=C(N)N)C[C@@H](N=C(N)N)[C@H]3O[C@H]3O[C@H](CN=C(N)N)[C@@H](O)[C@H](O)[C@H]3N=C(N)N)O[C@@H]2CO)[C@H](N=C(N)N)[C@@H](O)[C@@H]1O [guanidine-neomycin B (6, guanidino-neomycin B]
Inhibition of the transport of BODIPY-Cys(Arg)9 into cells (10T½ cells [3]; FACS, unlabeled competitor 10-200 μM, in words): effectively inhibits
Affinity to the RRE [4]: substantial affinity

guainidino-tobra-BODIPY hydrochloride [Guanidino-Tobra-BODIPY (2)]
Mean Fluorescence Intensities of Treated Cells According to FACS, 10T1/2 (10T½ cells [1]): 240
Cellular uptake / transport efficiency compared to poly-Arg peptide BODIPY-Cys(Arg)9 (5) (10T½ cells [1]): approximately the same transport efficiency
Mean Fluorescence Intensities of Treated Cells According to FACS, HeLa (HeLa cells [2]): 2,100

neo-BODIPY hydrochloride [Neo-BODIPY (3)]
Mean Fluorescence Intensities of Treated Cells According to FACS, 10T1/2 (10T½ cells [1]): 60
Cellular uptake (in words) (10T½ cells [1]): poor cellular uptakes
Mean Fluorescence Intensities of Treated Cells According to FACS, HeLa (HeLa cells [2]): ~1,400^(e)

NC[C@@H]1O[C@H](O[C@H]2[C@@H](O)[C@H](O[C@@H]3[C@@H](O)[C@H](N)C[C@H](N)[C@H]3O[C@H]3O[C@H](CN)[C@@H](O)[C@H](O)[C@H]3N)O[C@@H]2CO)[C@H](N)[C@@H](O)[C@@H]1O [neomycin B, reference compound]
Enhancement of cellular uptake upon guanidinylation (10T½ cells [1]): approximately 20 fold

guanidino-tobramycin
Affinity to the RRE [4]: substantial affinity

BODIPY-Cys(Arg)9 hydrochloride (CRRRRRRRRR; N-acetyl, C-amide, BODIPY on Cys) [BODIPY-Cys (Arg)9 (5), poly-Arg transduction peptide ace-…-am labelled with BODIPY on Cys]
Mean Fluorescence Intensity, 10T1/2, in presence of 10 μM (6) (10T½ cells [3]; 0.5 μM (5) + 10 μM guanidino-neomycin B (6), 1 hr): 110
Mean Fluorescence Intensity, 10T1/2, in presence of 50 μM (6) (10T½ cells [3]; 0.5 μM (5) + 50 μM guanidino-neomycin B (6), 1 hr): 90
Mean Fluorescence Intensity, 10T1/2, in presence of 200 μM (6) (10T½ cells [3]; 0.5 μM (5) + 200 μM guanidino-neomycin B (6), 1 hr): 70
Mean Fluorescence Intensities of Treated Cells According to FACS, 10T1/2 (10T½ cells [1]): 280
Mean Fluorescence Intensities of Treated Cells According to FACS, HeLa (HeLa cells [2]): 2,000

guanidino-Neo-BODIPY hydrochloride [Guanidino-Neo-BODIPY (4)]
Mean Fluorescence Intensities of Treated Cells According to FACS, 10T1/2 (10T½ cells [1]): 430
Cellular uptake / transport efficiency compared to poly-Arg peptide BODIPY-Cys(Arg)9 (5) (10T½ cells [1]): better cellular uptake
Mean Fluorescence Intensities of Treated Cells According to FACS, HeLa (HeLa cells [2]): 7,900
Cellular localization (HeLa cells [5]): two distinct types of cellular localization
